# ± gives the expanded uncertainty stated by the source.
# Details: Liquid, Closed cell (Static) method
SMILES,vapor or sublimation pressure (303.15 K) [kPa],vapor or sublimation pressure (313.15 K) [kPa],vapor or sublimation pressure (323.15 K) [kPa],vapor or sublimation pressure (333.15 K) [kPa],vapor or sublimation pressure (343.15 K) [kPa],vapor or sublimation pressure (353.15 K) [kPa],vapor or sublimation pressure (363.15 K) [kPa],vapor or sublimation pressure (373.15 K) [kPa],vapor or sublimation pressure (383.15 K) [kPa],vapor or sublimation pressure (393.15 K) [kPa]
C1CCCCC1 [cyclohexane],16.4 ± 1,24.7 ± 1,36.4 ± 1,52 ± 1.1,72.5 ± 1.1,–,–,–,–,–
CCCCCCCCCC [decane],0.2,0.6 ± 1,1 ± 1,1.7 ± 1,2.7 ± 1,4.3 ± 1,6.6 ± 1,9.9 ± 1,14.4 ± 1,20.6 ± 1
CCCCCCCCCCCC [dodecane],–,–,–,–,0.4,0.7 ± 1,1.2 ± 1,2 ± 1,3.2 ± 1,4.9 ± 1
CCC1CCCCC1 [ethylcyclohexane],2.1 ± 1,3.7 ± 1,6 ± 1,9.3 ± 1,13.9 ± 1,20.4 ± 1,28.9 ± 1,40.3 ± 1,54.8 ± 1.1,73.2 ± 1.1
CCCCCCC [heptane],7.9 ± 1,12.4 ± 1,19 ± 1,28.2 ± 1,40.6 ± 1,57.1 ± 1.1,–,–,–,–
CC1CCCCC1 [methylcyclohexane],7.9 ± 1,12.3 ± 1,18.5 ± 1,27.1 ± 1,38.7 ± 1,53.8 ± 1.1,73.3 ± 1.1,–,–,–
